These results are taken from publication PMC5638916, “CETSA quantitatively verifies in vivo target engagement of novel RIPK1 inhibitors in various biospecimens” (Scientific Reports, 2017).

Assay [1] concerns L929 cells. Put plainly: L929 necroptosis assay. The following applies: mouse TNFα + Z-VAD-FMK, 4 h. It counts as cell-based.
Method: For mouse L929 necroptosis assay, L929 cells were seeded to a 96-assay plate at 3.0 × 10^4 cells/120 μl in RPMI1640 medium (189–02025, WAKO) supplemented with 10% FBS, 100 U ml^−1 penicillin, and 100 μg ml^−1 streptomycin and the cells were cultured for 16–20 h at 37 °C, 5% CO2. After overnight incubation, the cells were treated with 15 μl of inhibitor containing media followed by the treatment with 15 μl of necroptosis inducer containing mouse TNFα and Z-VAD-FMK at final concentration of 20 ng ml^−1 and 20 μM, respectively, and incubated for 4 h. The cytotoxicity assay was conducted in the same way as the HT-29 necroptosis assay.
Assay [2] relates to HT-29 cells. In words: HT-29 necroptosis assay. It counts as cell-based, human. The note with it: TNF-α + AT-406 + zVAD-FMK, 16–20 h, read-out: HT29-Necroptosis (IC50) (converted). As for the experimental part:
The efficacies of RIP1 inhibitors were tested in vitro using HT-29 cells and L929 cells in a necroptosis assay. For HT-29 necroptosis assay, frozen HT-29 cells were thawed and diluted to 1.5 × 10^5 cells ml^−1 in McCoy’s 5 A Medium (16600108, Invitrogen) supplemented with 10% FBS, 100 U ml^−1 penicillin, and 100 μg ml^−1 streptomycin. A 20 μl aliquot of cell suspension was added to each well of a 384-assay plate and the cell culture plates were incubated for 16–20 h at 37 °C, 5% CO2. After overnight incubation, 2.5 μl of inhibitor dissolved in culture medium was added to each well of the cell plates, and then each well was treated with 2.5 μl of necroptosis inducer containing […], AT-406, and zVAD-FMK solution at final concentrations of 200 ng ml^−1, 10 μM, and 200 μM, respectively. Lidded plates were incubated for 16–20 h at 37 °C, 5% CO2. The next day, the supernatant of culture medium in each well was evaluated with CytoTox 96 Non-Radioactive Cytotoxicity Assay (G1780, Promega) according to the manufacturer’s instructions. The absorbance of the test plate was measured by 2103 EnVision Multilabel plate reader.
A, no necroptosis inducer; B, necroptosis inducer; X, necroptosis inducer plus test inhibitor. IC50 values were calculated with XLfit software (IDBS) using a four-parameter logistic curve.

For assay [3], the system named is phospho (Ser-345)-MLKL. Put plainly: Mouse phospho (Ser-345)-MLKL ELISA assay in L929 cells. It counts as cell-based. The note with it: read-out: L929-pMLKL (IC50).
Method: (§1) estimated using a four-parameter logistic curve using GraphPad Prism 6.01 software (GraphPad Software Inc., La J olla, CA, USA). All of the data are shown as mean ± SEM.
Mouse phospho-MLKL ELISA assay. Phospho- MLKL in L929 cells were detected b y gen eral sandwich E LISA . L929 cell l ysat es stimulated with necroptosis inducer wer e pr epar ed in the same manner as for the in vitro necroptosis assay. The protein content of each cell l ysates was adjusted to 2 00–300 µg m l –1 to be normalised. Then 100 µl of normalised samples were added onto 96-well ELIS A pl ates (442404, Nunc) whi ch had been coated with 100 µl of anti-mouse MLKL Ab (1 µg ml –1 in PBS) overnight at 4°C, and incubated for 1h at room temperatur e. Nex t, plates were incub ated with 100 µl of anti- phospho- M LKL Ab (1 µg m l –1 in PBS supplemented with 1% BSA and 0.05% Tween20) for 1h at room temperature. Then, plates were reacted with 100 µl of anti-rabbit IgG HRP for 1h followed b y detection with 100 µl of TM B. After stopping the reaction b y adding 100 µl of 0.5 M H2SO4, plates wer e r ead on a spectrophotometer, Viento® (DS Pharma Biomedical) at A450.
Assay [4] concerns the target T1, human RIPK1 (Homo sapiens, UniProt Q13546).
T1 construct: ITDRF values of half-maximal stabilization of endogenous RIPK1; endogenous in cells; host or cells: HT-29
T1 sequence (Q13546 1-671): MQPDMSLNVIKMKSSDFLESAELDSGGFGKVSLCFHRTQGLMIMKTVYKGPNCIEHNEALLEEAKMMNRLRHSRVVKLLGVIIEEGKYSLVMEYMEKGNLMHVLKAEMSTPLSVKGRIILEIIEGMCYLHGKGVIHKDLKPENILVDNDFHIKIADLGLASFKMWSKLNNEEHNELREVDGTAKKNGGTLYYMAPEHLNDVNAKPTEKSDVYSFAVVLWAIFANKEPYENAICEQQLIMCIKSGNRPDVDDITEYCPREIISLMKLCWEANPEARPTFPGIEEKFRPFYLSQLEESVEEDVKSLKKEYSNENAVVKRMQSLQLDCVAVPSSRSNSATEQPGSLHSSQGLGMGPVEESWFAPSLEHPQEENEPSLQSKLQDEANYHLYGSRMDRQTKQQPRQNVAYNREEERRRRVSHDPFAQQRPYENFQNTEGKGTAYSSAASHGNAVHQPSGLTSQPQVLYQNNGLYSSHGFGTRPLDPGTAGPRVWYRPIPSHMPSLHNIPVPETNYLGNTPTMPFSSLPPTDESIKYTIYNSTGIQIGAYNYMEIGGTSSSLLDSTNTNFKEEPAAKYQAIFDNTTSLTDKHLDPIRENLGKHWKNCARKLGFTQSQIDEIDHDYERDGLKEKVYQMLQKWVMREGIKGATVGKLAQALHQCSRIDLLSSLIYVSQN
Put plainly: CETSA (Tagg curves and ITDRF) for human RIPK1 with HT-29 cells. It counts as cell-based. The following applies: compound 30 min, 47 °C for 8 min denature, independent runs reported, read-out: human_ITDRF-CETSA (EC50). As for the experimental part: HT-29 and L929 cells were harvested and suspended with culture media containing 10% FBS to a cell density of 2 × 10^6 cells ml^−1. Mouse peripheral blood was collected from C57BL/6 J (female, 10-week-old, Charles River Japan) and PBMCs were isolated by density centrifugation over Lympholyte®-Mammal Cell Separation Media, Mammalian (CL5110, Cedarlane Laboratories) according to manual instructions. Briefly, approximately 500 μl of blood was carefully overlaid on 250 μl of the separation media so as not to disturb the layer. The samples were immediately spun at 800 g for 20 min at room temperature. After centrifugation, the buffy coat containing the PBMCs was collected with almost 350 μl of plasma to a cell density of approximately 1 × 10^6 cells ml^−1. […]
For the in-cell thermal aggregation curve experiments, the compound solution was mixed with 9-fold volume of the suspension of cells at approximately 2 × 10^6 cells ml^−1 and the cells were incubated for 30 min at 37 °C, 5% CO2. […] Both whole and supernatant samples were analysed by sodium dodecyl sulfate polyacrylamide gel electrophoresis (SDS-PAGE) followed by Western blotting.
For the ITDRF in cell experiments, compounds were serially diluted to generate dose response curves. […] The heat-treated samples were treated as for the sample preparation and analysed with Western blotting following the procedure described above. […]

Assay [5] deals with CD11b+/Ly-6G- monocytes in mouse whole blood. In words: In vitro whole blood necroptosis assay (monocyte cell death). The following applies: for restoration of monocyte number/fraction after TSZ stimulation: FACS. It counts as cell-based.
Method: For in vitro whole blood assa y, 40 µl of peripheral blood were added to each well of the 96-well plate containing 12 µl of the appropriate concentration of inhibitors and 56 µl of RPMI1640 medium supplemented with 100 U ml –1 penicillin and 100 µ g ml–1 streptom ycin.
After 30 min inhibitor incubation, 12 µ l of mixture of necroptosis inducer including mouse TNF-α, AT -406, and zVAD-FMK was added to each well (final concentrations of 10 ng ml–1, 1 µM, and 20 µM, respectively), and then the cells were incubated for 16–20 h at 37°C with 5% CO2. After overnight incubation, cultured blood cells were mixed with Mouse BD Fc Block™ (553142, BD Biosciences) to block Fc receptor followed by the reaction with appropriate antibodies for 30 min on ice. Then, red blood cells were eliminated b y adding 1x lysing buffer (555899, BD Biosciences) and the cells were washed once with PBS supplemented with 1% FBS. Cells were anal ysed on an SORP LSRII Fortessa or a SORP FA C S C anto II flow c ytometer (BD Biosciences).
For ex vivo experiments, 40 µl of peripheral blood was mixed with 68 µl of RPMI1640 and resulting 108 µ l of diluted blood were added to each well of a 96- assa y pl ate with 12 µ l of mixture of necroptosis inducer mentioned above, and then the cells were incubated for 16–20 h at 37°C with 5% CO 2. The next day, the cells were collected and monocyte population was anal ysed b y flow cytometry following the procedure described above. Percentage inhibition was calculated from the signal intensity of FACS anal ysis b y
as §1
The subject of assay [6] is MLKL phosphorylation (p-MLKL). In words: Immunoblot of MLKL phosphorylation in isolated CD11b+Ly-6G- monocytes. The following applies: isolated CD11b+Ly-6G- monocyte cells. It counts as cell-based, mouse. On the procedure: reaction. […] An excitation filter of
Inhibition rate was ex pressed as percent
(%) inhibition of internal assay controls. Percentage inhibition was calculated from the signal […]
For concentration response
(IDBS) using a four-parameter logistic curve. The value of Ki (the inhibitory constant) was […]
In vitro and ex vivo whole blood necroptosis assay. For the isolation of mouse monoc yte […]
density centrifugation over Ficoll-Paque Plus (GE Healthcare). Then, CD11b+/ Ly -6G- […]
manufacturer ’s recommendation. […]
treatment (no stimulation, TSZ stimulation with DMSO control, and TSZ stimulation with […] Nec- 1). As a result, the monocyte and neutrophil fraction was decreased, in which fractions onl y the monocyte fraction was restored by the treatment of RIPK1 inhibitor. (b) Monocyte cell number was counted as CD11b+/Ly-6G- population by FACS staining for further confirmation, since CD11b+ fraction contains Ly-6G+ neutrophil population. The left-hand graph indicates the CD11b+Ly-6G- monocyt e population which was calculated from flow c ytometr y analysis. Representative plots are indicated in the right- hand panels in which CD11b+/ Ly-6G- population are shown as blue dots. Significant reduction in monocyte […]
25 treatment. (c) C D 1 1 b + Ly -6G- monoc yte cells were isolated as des cribed in Supplementary Fi g. 4b and anal ysed b y i mmunoblotting using the indicated antibodies. […]

Each structure is given as a SMILES string. Read-outs that look alike come from different tables or passages of the source.

For orientation: IC50 means the concentration that inhibits the measured activity by half. By EC50 is commonly meant the concentration giving half of the maximal effect.

Turning to `CNC(=O)c1ccc2c(c1)OC[C@H](N1CCc3c(nn(Cc4ccccc4)c3Cl)C1=O)C(=O)N2C` [Compound 23], the IC50 in assay [1] is 15 nM; in assay [2] (Homo sapiens), 1.8 nM; in assay [3], 16 nM.

Turning to `Nc1ncnc2occ(-c3ccc(NC(=O)Nc4cc(C(F)(F)F)ccc4F)cc3)c12` [GSK-compound 27, reference compound], the IC50 in assay [2] (Homo sapiens) was 300 nM.

For the compound `CN1C(=O)C(Cc2c[nH]c3ccccc23)NC1=S` (centres unmarked) [Nec-1, Necrostatin-1, reference compound], the half-maximal effective concentration (EC50) in assay [4] was found to be 1100 nM. In addition, the “restoration of monocyte number/fraction after TSZ stimulation” value in assay [5] is reported as “restored”. Further, the half-maximal inhibitory concentration (IC50) in assay [2] (Homo sapiens) was 610 nM.

As for `CN1C(=O)[C@@H](N2CCc3cn(Cc4ccccc4F)nc3C2=O)COc2cc(C#N)ccc21` [Compound 25], the “inhibition of TSZ-induced MLKL phosphorylation (p-MLKL)” value in assay [6] is given as “completely inhibited”. Also, the IC50 is 1200 nM in assay [5] (TNF-α + AT-406 + zVAD-FMK, 16–20 h, monocyte population by FACS); 140 nM in assay [1]; 8.2 nM in assay [2] (Homo sapiens); 66 nM in assay [3]. Further, the “restoration of monocyte number/fraction after TSZ stimulation” value in assay [5] is reported as “rescued”.

With `CN1C(=O)[C@@H](N2CCc3c(nn(Cc4ccccc4)c3Cl)C2=O)COc2ccccc21` [Compound 18, (3S)-3-(2-benzyl-3-chloro-7-oxo-2,4,5,7-tetrahydro-6H-pyrazolo[3,4-c]pyridin-6-yl)-5-methyl-2,3-dihydro-1,5-benzoxazepin-4(5H)-one], the half-inhibitory concentration (IC50) in assay [2] is 1.5 nM.
